Conditions: 303.16 K, Liquid, Vibrating tube method

CCCC(=O)OCC(COC(=O)CCC)(COC(=O)CCC)COC(=O)CCC [pentaerythritol tetrabutyrate]
Conditions | mass density [kg/m3]
15938 kPa | 1052.3
15972 kPa | 1052.3
16014 kPa | 1052.4
16048 kPa | 1052.3
16090 kPa | 1052.4
16125 kPa | 1052.5
16167 kPa | 1052.5
16209 kPa | 1052.5
16244 kPa | 1052.5
16286 kPa | 1052.6
16323 kPa | 1052.5
16366 kPa | 1052.5
16409 kPa | 1052.7
16446 kPa | 1052.6
16489 kPa | 1052.7
16526 kPa | 1052.7
16571 kPa | 1052.7
16616 kPa | 1052.7
16654 kPa | 1052.7
16700 kPa | 1052.7
16739 kPa | 1052.8
16786 kPa | 1052.8
16833 kPa | 1052.9
16872 kPa | 1053
16906 kPa | 1052.9
16947 kPa | 1053
16988 kPa | 1052.9
17023 kPa | 1053
17065 kPa | 1053
17100 kPa | 1053
17142 kPa | 1053
17185 kPa | 1052.9
17221 kPa | 1053
17265 kPa | 1053.2
17301 kPa | 1053.1
17346 kPa | 1053.2
17383 kPa | 1053.1
17428 kPa | 1053.2
17464 kPa | 1053.2
17508 kPa | 1053.2
17552 kPa | 1053.1
17588 kPa | 1053.3
17632 kPa | 1053.3
17669 kPa | 1053.4
17713 kPa | 1053.5
17758 kPa | 1053.5
17796 kPa | 1053.4
17840 kPa | 1053.4
17887 kPa | 1053.5
17924 kPa | 1053.4
17970 kPa | 1053.5
18009 kPa | 1053.6
18056 kPa | 1053.6
18094 kPa | 1053.5
18141 kPa | 1053.6
18187 kPa | 1053.6
18226 kPa | 1053.6
18275 kPa | 1053.6
18315 kPa | 1053.9
18363 kPa | 1053.8
18405 kPa | 1053.7
18448 kPa | 1053.9
18497 kPa | 1053.9
18546 kPa | 1054
18588 kPa | 1053.9
18638 kPa | 1054
18681 kPa | 1054.1
18732 kPa | 1054
18784 kPa | 1054
18828 kPa | 1054.1
18881 kPa | 1054.2
18917 kPa | 1054
18955 kPa | 1054
18996 kPa | 1054.2
19030 kPa | 1054.2
19063 kPa | 1054.2
19103 kPa | 1054.2
19136 kPa | 1054.2
19176 kPa | 1054.3
19209 kPa | 1054.3
19248 kPa | 1054.3
19288 kPa | 1054.4
19321 kPa | 1054.3
19361 kPa | 1054.4
19395 kPa | 1054.3
19436 kPa | 1054.4
19477 kPa | 1054.5
19512 kPa | 1054.4
19553 kPa | 1054.5
19587 kPa | 1054.5
19629 kPa | 1054.5
19665 kPa | 1054.4
19707 kPa | 1054.6
19741 kPa | 1054.6
19783 kPa | 1054.5
19825 kPa | 1054.7
19861 kPa | 1054.7
19904 kPa | 1054.6
19940 kPa | 1054.8
19985 kPa | 1054.6
20021 kPa | 1054.8
20064 kPa | 1054.8
20101 kPa | 1054.9
20144 kPa | 1054.8
20189 kPa | 1054.9
20226 kPa | 1054.9
20270 kPa | 1054.9
20308 kPa | 1054.8
20479 kPa | 1055
20525 kPa | 1054.9
20562 kPa | 1055.1
20609 kPa | 1055.1
20648 kPa | 1055.1
20695 kPa | 1055.1
20735 kPa | 1055.3
20783 kPa | 1055.2
20823 kPa | 1055.3
20871 kPa | 1055.3
20911 kPa | 1055.3
20958 kPa | 1055.2
20997 kPa | 1055.3
21046 kPa | 1055.4
21087 kPa | 1055.4
21317 kPa | 1055.5
21366 kPa | 1055.5
21458 kPa | 1055.5
21510 kPa | 1055.6
21552 kPa | 1055.6
21603 kPa | 1055.7
21646 kPa | 1055.7
21698 kPa | 1055.6
21749 kPa | 1055.8
21792 kPa | 1055.7
21845 kPa | 1055.9
21889 kPa | 1055.9
21942 kPa | 1055.8
21986 kPa | 1055.9
22040 kPa | 1055.9
22093 kPa | 1056
22138 kPa | 1056
22194 kPa | 1056
22240 kPa | 1056.1
22297 kPa | 1056.1
22344 kPa | 1056.2
22399 kPa | 1056.2
22444 kPa | 1056.1
22501 kPa | 1056.1
22549 kPa | 1056.2
22606 kPa | 1056.2
22664 kPa | 1056.3
22714 kPa | 1056.3
22776 kPa | 1056.4
22829 kPa | 1056.3
22885 kPa | 1056.5
22917 kPa | 1056.4
22959 kPa | 1056.5
22993 kPa | 1056.4
23026 kPa | 1056.4
23065 kPa | 1056.6
23104 kPa | 1056.5
23137 kPa | 1056.6
23177 kPa | 1056.6
23211 kPa | 1056.7
23251 kPa | 1056.7
23285 kPa | 1056.7
23325 kPa | 1056.7
23359 kPa | 1056.7
23399 kPa | 1056.7
23440 kPa | 1056.7
23475 kPa | 1056.8
23516 kPa | 1056.9
23551 kPa | 1056.9
23593 kPa | 1056.9
23628 kPa | 1056.8
23670 kPa | 1056.9
23705 kPa | 1056.8
23747 kPa | 1056.8
23782 kPa | 1057
23825 kPa | 1057
23860 kPa | 1057
23902 kPa | 1057.1
23946 kPa | 1057.1
23981 kPa | 1057
24023 kPa | 1057.1
24066 kPa | 1057
24101 kPa | 1057.2
24145 kPa | 1057.1
24182 kPa | 1057.3
24225 kPa | 1057.1
24269 kPa | 1057.2
24306 kPa | 1057.2
24350 kPa | 1057.3
24387 kPa | 1057.4
24432 kPa | 1057.3
24470 kPa | 1057.3
24515 kPa | 1057.5
24560 kPa | 1057.4
24597 kPa | 1057.4
24642 kPa | 1057.4
24680 kPa | 1057.5
24726 kPa | 1057.6
24772 kPa | 1057.6
24810 kPa | 1057.5
24858 kPa | 1057.5
24897 kPa | 1057.6
24944 kPa | 1057.7
24991 kPa | 1057.6
25031 kPa | 1057.5
25070 kPa | 1057.7
25117 kPa | 1057.7
25165 kPa | 1057.7
25204 kPa | 1057.8
25252 kPa | 1057.8
25292 kPa | 1057.9
25340 kPa | 1057.9
25389 kPa | 1058
25431 kPa | 1057.9
25481 kPa | 1057.9
25523 kPa | 1058
25574 kPa | 1058.1
25618 kPa | 1058.1
25669 kPa | 1058
25712 kPa | 1058.1
25765 kPa | 1058.1
25816 kPa | 1058.1
25851 kPa | 1058.2
25889 kPa | 1058.2
25926 kPa | 1058.1
25957 kPa | 1058
25995 kPa | 1058.2
26027 kPa | 1058.1
26066 kPa | 1058.3
26106 kPa | 1058.3
26139 kPa | 1058.4
26171 kPa | 1058.3
26210 kPa | 1058.3
26243 kPa | 1058.4
26282 kPa | 1058.4
26320 kPa | 1058.4
26352 kPa | 1058.5
26392 kPa | 1058.5
26430 kPa | 1058.3
26463 kPa | 1058.4
26504 kPa | 1058.6
26538 kPa | 1058.6
26574 kPa | 1058.6
26615 kPa | 1058.5
26648 kPa | 1058.6
26688 kPa | 1058.6
26728 kPa | 1058.6
26761 kPa | 1058.6
26802 kPa | 1058.6
26836 kPa | 1058.7
26876 kPa | 1058.8
26918 kPa | 1058.7
26952 kPa | 1058.7
26994 kPa | 1058.8
27028 kPa | 1058.8
27070 kPa | 1058.9
27110 kPa | 1058.8
27145 kPa | 1058.8
27188 kPa | 1058.8
27223 kPa | 1059.1
27266 kPa | 1058.9
27301 kPa | 1059
27343 kPa | 1058.9
27385 kPa | 1059.2
27420 kPa | 1059
27464 kPa | 1059
27499 kPa | 1059
27542 kPa | 1059.1
27585 kPa | 1059.1
27622 kPa | 1059.2
27666 kPa | 1059.2
27702 kPa | 1059.2
27747 kPa | 1059.1
27784 kPa | 1059.3
27828 kPa | 1059.2
27865 kPa | 1059.3
27909 kPa | 1059.4
27953 kPa | 1059.4
27991 kPa | 1059.3
28035 kPa | 1059.4
28079 kPa | 1059.4
28117 kPa | 1059.3
28162 kPa | 1059.4
28200 kPa | 1059.5
28244 kPa | 1059.4
28290 kPa | 1059.5
28328 kPa | 1059.5
28374 kPa | 1059.6
28419 kPa | 1059.7

Reference: the NIST ThermoML archive (doi:10.1021/je060271a)
